This is an account of results in publication PMC11156899, “High-throughput screening unveils nitazoxanide as a potent PRRSV inhibitor by targeting NMRAL1” (Nature Communications, 2024).

Series [1] is described as follows: Cytotoxicity assay (CC50) in MARC-145 cells. It counts as cell-based. Particulars: African green monkey, 48 h of exposure, CCK-8. The text has this: Control wells contained DMEM with 0.5% DMSO.
(§1) Supplementary Fig. 3: Cytotoxicity and Antiviral Efficacy of NTZ.
(§2) PRRSV capsid protein positive
(§3) (primary antibody SR30, green) and nuclei (DAPI, blue).

For another series, the system named is PRRSV VR2332. The experiment in a line: EC50 against VR-2332 strain on PAM cells. It counts as cell-based. Particulars: Porcine reproductive and respiratory syndrome virus.
Excerpt: as §1, §2, §3

For series [2] the following is noted: pig, in vivo, po. On the procedure: Blood samples were collected from the anterior vena cava for complete blood count using a PE-6800VET analyzer (Prokan) and biochemical analysis using a VetTest Plasma Chemistry Analyzer (IDEXX). Reference ranges were obtained from Iowa State University College of Veterinary Medicine (https://vetmed.iastate.edu/vpath/services/diagnostic-services/clinical-pathology/testing-and-fees/reference-intervals). IHC were performed as previously described, involving 24-h incubation with SR30 antibody (1:400) and subsequent treatment with HRP-labeled secondary antibody.
Supplementary Fig. 6: Complete Blood Counts and Biochemical Analysis.
Six animals from the same enclosure were divided into three groups (n = 2) and fed different doses of NTZ twice daily for three
consecutive days, with a 12-hour interval. Parameters measured included White Blood Cell (WBC) counts, Lymphocyte (LYM)
percentages, Monocyte (MONO) counts, Neutrophil (NEU) counts, Red Blood Cell (RBC) counts, Hemoglobin (HGB)
concentration, Mean Corpuscular Hemoglobin (MCH), Mean Corpuscular Hemoglobin Concentration (MCHC), Platelet (PLT)
counts, Albumin (ALB) concentration, Total Protein (TP) concentration, Glucose (GLU) levels, Alkaline Phosphatase (ALP)
levels, Total Bilirubin (TBIL) levels, and Blood Urea Nitrogen (BUN) concentration. The grey areas in each panel represent the
reference ranges for these indices.

The test system of the next series is NSP12. The experiment in a line: In vitro binding (DSF/CETSA) of NSP12 purified by inclusion bodies. Particulars: NSP12 purified by IBs, different buffer systems. Also on record: species or system PRRSV GSWW-18 strain. On the procedure:
For DSF, 20 μM purified NSP1α and NSP12 protein from the GSWW-18 strain, as well as NMRAL1 protein (Accession: A0A0D9R9W0) was thoroughly mixed with 20 μM SYPRO Orange (S6650, Thermo) in a buffer containing 10 mM HEPES and 200 mM NaCl at pH 7.20. An equal volume of 100 μM NTZ, dissolved in the same buffer, was added and the mixture was filtered through a 0.22 μm filter. For controls, an equivalent volume of DMSO was used. […] DSF experiments were monitored using the QuantStudio™ 5 Real-Time PCR System (Thermo). Data were analyzed using DSFworld[42].
'FT' is the flow-through after passing through the Ni column. 'Ni-200' and 'Ni-500' represent different purification conditions with varying concentrations. 'L2' is the total cell lysate after changing the expression conditions. 'S2' is the supernatant after cell lysis with changed expression conditions. The portions highlighted in red boxes indicate the target protein. […]
constant (KD) between Nsp1α and TIZ is lower than that of NMRAL1. We observe that […]
attempting different systems (Fig. R5 e-h). Although SPR confirms the interaction […]
possibly be attributed to the abnormal protein conformation of NSP12 purified by IBs. […]
(b) The KD value of Nsp1α determined using the Kinetics fit model. […]
(I) The KD value of Nsp12 determined using the Kinetics fit model. […]

Another series deals with PRRSV GSWW-18 strain. The experiment in a line: In vivo antiviral effect in swine infected with GSWW-18 strain. Details: species or system pig. Particulars: for PRRSV dynamics in blood within 24 h: 48 h post infection.
Where [3] appears, read: treatment group, only 25 mg/kg, P < 0.0001.

As usually defined, the CC50 is the concentration that lowers cell viability or growth by half. High values mean better tolerance by the cells, low ones harm at low concentration. In general, EC50 refers to the concentration that produces a half-maximal response. Low readings indicate a more potent agent, high ones a less potent agent. Regarding `CC(=O)Oc1ccccc1C(=O)Nc1ncc([N+](=O)[O-])s1` [Nitazoxanide], the CC50 at 48 h in series [1] was around 44 µM. The molecule also showed an EC50 with PRRSV VR2332 of around 0.67 µM. The “adverse reactions (hematology, biochemical indices, clinical activity)” value in series [2] is on record as “No adverse reactions”. The “binding activity with NSP12 in vitro” value with NSP12 is “did not exhibit binding activity”. The “PRRSV dynamics in blood within 24 h” value in the series with PRRSV GSWW-18 strain (5 mg/kg oral at 0 h and 12 h) is listed as “viral loads decreased from 2 h to 8 h post administration”; with PRRSV GSWW-18 strain (10 mg/kg oral at 0 h and 12 h) it was “more pronounced inhibition”. In the series with PRRSV GSWW-18 strain (25 mg/kg oral), the “body temperature and weight” value is “alleviated the rise in body temperature and weight loss”. For the same molecule, in the series on PRRSV GSWW-18 strain (25 mg/kg oral, prophylactic and therapeutic groups, vs MOCK), the “lung PRRSV-positive cells (IHC)” value is “fewer lung PRRSV-positive cells”. Further, in the series with PRRSV GSWW-18 strain (25 mg/kg, treatment and prophylactic groups), the “clinical symptoms by day 7” value is on record as “no apparent clinical symptoms”. In the series on PRRSV GSWW-18 strain (a specific dose of NTZ, PO BID 3 days), the “interstitial pneumonia with lobar consolidation” value is reported as “significantly mitigated”. In addition, the “fatalities within 14 days” value in the series with PRRSV GSWW-18 strain (pig, in vivo) is recorded as “no fatalities”. In addition, the “PRRSV replication in ManLNs, lungs and tonsils” value in the series on PRRSV GSWW-18 strain (prophylactic and treatment groups, P < 0.0332) is “significantly reduced”. Further, in the series on PRRSV GSWW-18 strain (prophylactic group, 5 mg/kg, P = 0.0033), the “PRRSV viral load in blood” value is on record as “significantly reduced”. In addition, the “viral copy numbers in BALF” value is reported as “significant effects” in the series on PRRSV GSWW-18 strain (prophylactic group, 10 mg/kg and 25 mg/kg, P < 0.0001); “achieved statistical significance” with PRRSV GSWW-18 strain (setting [3]). Further, the oronasal shedding result in the series with PRRSV GSWW-18 strain (prophylactic group, 10 mg/kg, P = 0.0012) is reported as “significantly lowered”. In addition, in the series with PRRSV GSWW-18 strain (prophylactic group, even at 25 mg/kg), the anal shedding result is reported as “did not reduce”. The “virus in ILNs” value with PRRSV GSWW-18 strain (setting [3]) was “significantly suppressed”.
